Assay results: article PMC7041945, “Misfolded proteins bind and activate death receptor 5 to trigger apoptosis during unresolved endoplasmic reticulum stress” (eLife, 2020)

Tests used:
GAPDH = experiment: qPCR of GAPDH (reference transcript); assay type: cell-based; settings: Rep 2; for avg. fold induction GAPDH / fold induction GAPDH: vs 24 hr cytoGFP (empty traffo)
[1] = system: CHOP, BiP, and DR5 mRNA in HCT116 cells; experiment: qPCR of UPR target transcripts (CHOP, BiP, DR5); assay type: cell-based, Homo sapiens
Protocol: Cells were grown in 6-well plates and harvested with 0.5 ml of TRIzol reagent (Life Technologies) per manufacturer’s protocol to extract RNA. For cDNA synthesis, 500 ng of total RNA was reverse transcribed with 2 μl of the SuperScript VILO master mix (Life Technologies # 11755050) in a total reaction volume of 10 μl following the manufacturer’s protocol for reaction temperature and duration. The reverse transcription product was diluted to 200 μl with 10 mM Tris-HCl pH 8.2 and used at 1:100 dilution for subsequent RT-PCR reactions.
PCR samples were prepared as described by manufacturer’s protocols from iQ SYBR Green Supermix (BioRad #17088800).
For each experiment, qRT-PCR reactions were set up in triplicate and run using a CFX96 Real Time System (Bio-Rad). Quantitation cycles were determined with CFX Manager 3.0 software (Bio-Rad) and then normalized to GAPDH as an internal control.

[2] = 1000 ng plasmid, sheet Rep 1, mean of 3 replicates
[3] = 3 hr, Rep 2, vs 24 hr cytoGFP (empty traffo), mean of 3 replicates
[4] = 3 hr, Rep 2, vs 24 hr cytoGFP (empty traffo), replicate 1
[5] = 3 hr, Rep 2, vs 24 hr cytoGFP (empty traffo), replicate 2
[6] = 3 hr, Rep 2, vs 24 hr cytoGFP (empty traffo), replicate 3

RHO-GFP: GFP-tagged rhodopsin expressed from plasmid
Cq GAPDH (GAPDH; 3 hr, mean of 3 replicates): 19.7379 | 2^-(deltaCq) GAPDH (GAPDH; 3 hr, replicate 1): 0.8551 | Cq GAPDH (GAPDH; 3 hr, replicate 1): 19.9638 | Cq(sample) - avg Cq(GAPDH), GAPDH (GAPDH; 3 hr, replicate 1): 0.2259 | 2^-(deltaCq) GAPDH (GAPDH; 3 hr, replicate 2): 1.128 | Cq GAPDH (GAPDH; 3 hr, replicate 2): 19.5639 | Cq(sample) - avg Cq(GAPDH), GAPDH (GAPDH; 3 hr, replicate 2): -0.174 | 2^-(deltaCq) GAPDH (GAPDH; 3 hr, replicate 3): 1.0366 | Cq GAPDH (GAPDH; 3 hr, replicate 3): 19.686 | Cq(sample) - avg Cq(GAPDH), GAPDH (GAPDH; 3 hr, replicate 3): -0.05187 | avg. fold induction GAPDH (GAPDH; 3 hr, mean of 3 replicates): 1.004 | fold induction GAPDH (GAPDH; 3 hr, replicate 1): 0.8525 | fold induction GAPDH (GAPDH; 3 hr, replicate 2): 1.125 | fold induction GAPDH (GAPDH; 3 hr, replicate 3): 1.034 | Cq GAPDH (GAPDH; 7 hr, mean of 3 replicates): 19.658 | 2^-(deltaCq) GAPDH (GAPDH; 7 hr, replicate 1): 0.7732 | Cq GAPDH (GAPDH; 7 hr, replicate 1): 20.029 | Cq(sample) - avg Cq(GAPDH), GAPDH (GAPDH; 7 hr, replicate 1): 0.371 | 2^-(deltaCq) GAPDH (GAPDH; 7 hr, replicate 2): 1.046 | Cq GAPDH (GAPDH; 7 hr, replicate 2): 19.5931 | Cq(sample) - avg Cq(GAPDH), GAPDH (GAPDH; 7 hr, replicate 2): -0.06483 | 2^-(deltaCq) GAPDH (GAPDH; 7 hr, replicate 3): 1.236 | Cq GAPDH (GAPDH; 7 hr, replicate 3): 19.3518 | Cq(sample) - avg Cq(GAPDH), GAPDH (GAPDH; 7 hr, replicate 3): -0.3062 | avg. fold induction GAPDH (GAPDH; 7 hr, mean of 3 replicates): 1.016 | fold induction GAPDH (GAPDH; 7 hr, replicate 1): 0.7709 | fold induction GAPDH (GAPDH; 7 hr, replicate 2): 1.043 | fold induction GAPDH (GAPDH; 7 hr, replicate 3): 1.233 | Cq GAPDH (GAPDH; 24 hr, mean of 3 replicates): 19.018 | 2^-(deltaCq) GAPDH (GAPDH; 24 hr, replicate 1): 0.8063 | Cq GAPDH (GAPDH; 24 hr, replicate 1): 19.3286 | Cq(sample) - avg Cq(GAPDH), GAPDH (GAPDH; 24 hr, replicate 1): 0.3107 | 2^-(deltaCq) GAPDH (GAPDH; 24 hr, replicate 2): 1.066 | Cq GAPDH (GAPDH; 24 hr, replicate 2): 18.9252 | Cq(sample) - avg Cq(GAPDH), GAPDH (GAPDH; 24 hr, replicate 2): -0.09277 | 2^-(deltaCq) GAPDH (GAPDH; 24 hr, replicate 3): 1.163 | Cq GAPDH (GAPDH; 24 hr, replicate 3): 18.8001 | Cq(sample) - avg Cq(GAPDH), GAPDH (GAPDH; 24 hr, replicate 3): -0.2179 | avg. fold induction GAPDH (GAPDH; 24 hr, mean of 3 replicates): 1.009 | fold induction GAPDH (GAPDH; 24 hr, replicate 1): 0.8039 | fold induction GAPDH (GAPDH; 24 hr, replicate 2): 1.063 | fold induction GAPDH (GAPDH; 24 hr, replicate 3): 1.16 | 2^-(deltaCq) for GFP norm to GAPDH, avg ([1]; 1000 ng plasmid, sheet Rep 1, mean): 55.6234 | BiP avg fold induction relative to empty traffo [1, 2]: 1.525 | CHOP avg fold induction relative to empty traffo [1, 2]: 2.086 | DR5 total avg fold induction relative to empty traffo [1, 2]: 1.336 | GAPDH avg fold induction relative to empty traffo [1, 2]: 1.003 | 2^-(deltaCq) CHOP ([1]; 3 hr, Rep 2, replicate 1): 0.04356 | 2^-(deltaCq) DR5 total ([1]; 3 hr, Rep 2, replicate 1): 0.02287 | Cq CHOP ([1]; 3 hr, Rep 2, replicate 1): 24.2586 | Cq DR5 total ([1]; 3 hr, Rep 2, replicate 1): 25.1882 | Cq(sample) - avg Cq(GAPDH), CHOP ([1]; 3 hr, Rep 2, replicate 1): 4.521 | Cq(sample) - avg Cq(GAPDH), DR5 total ([1]; 3 hr, Rep 2, replicate 1): 5.45 | 2^-(deltaCq) CHOP ([1]; 3 hr, Rep 2, replicate 2): 0.03694 | 2^-(deltaCq) DR5 total ([1]; 3 hr, Rep 2, replicate 2): 0.02336 | Cq CHOP ([1]; 3 hr, Rep 2, replicate 2): 24.4965 | Cq DR5 total ([1]; 3 hr, Rep 2, replicate 2): 25.1574 | Cq(sample) - avg Cq(GAPDH), CHOP ([1]; 3 hr, Rep 2, replicate 2): 4.759 | Cq(sample) - avg Cq(GAPDH), DR5 total ([1]; 3 hr, Rep 2, replicate 2): 5.42 | 2^-(deltaCq) CHOP ([1]; 3 hr, Rep 2, replicate 3): 0.03617 | 2^-(deltaCq) DR5 total ([1]; 3 hr, Rep 2, replicate 3): 0.01987 | Cq CHOP ([1]; 3 hr, Rep 2, replicate 3): 24.5271 | Cq DR5 total ([1]; 3 hr, Rep 2, replicate 3): 25.391 | Cq(sample) - avg Cq(GAPDH), CHOP ([1]; 3 hr, Rep 2, replicate 3): 4.789 | Cq(sample) - avg Cq(GAPDH), DR5 total ([1]; 3 hr, Rep 2, replicate 3): 5.653 | avg. fold induction CHOP [1, 3]: 1.784 | avg. fold induction DR5 total [1, 3]: 0.7693 | fold induction CHOP [1, 4]: 1.9981 | fold induction DR5 total [1, 4]: 0.7985 | fold induction CHOP [1, 5]: 1.694 | fold induction DR5 total [1, 5]: 0.8157 | fold induction CHOP [1, 6]: 1.659 | fold induction DR5 total [1, 6]: 0.6938 | 2^-(deltaCq) CHOP ([1]; 7 hr, Rep 2, replicate 1): 0.1012 | 2^-(deltaCq) DR5 total ([1]; 7 hr, Rep 2, replicate 1): 0.0421 | Cq CHOP ([1]; 7 hr, Rep 2, replicate 1): 22.9621 | Cq DR5 total ([1]; 7 hr, Rep 2, replicate 1): 24.2279 | Cq(sample) - avg Cq(GAPDH), CHOP ([1]; 7 hr, Rep 2, replicate 1): 3.304 | Cq(sample) - avg Cq(GAPDH), DR5 total ([1]; 7 hr, Rep 2, replicate 1): 4.57
